This is an account of results in patent US20160151337A1, “ANNELATED PYRROLES AND THEIR USE AS CRAC INHIBITORS” (Grünenthal GmbH, priority 2013, published 2016).

In experiment [1] the target is T1, CRAC channel (Homo sapiens, UniProt Q96D31).
T1 construct: endogenous in cells; host or cells: HEK293 (ECACC), untransfected
Briefly: HEK Calcium Influx Assay (FLIPR), inhibition of store-operated Ca2+ entry after thapsigargin store depletion. The experiment is classed as cell-based. The conditions noted are these: 10 μM compound, HEK293 cells, read-out: % inhib. [@ 10 μM] FLIPR. In a few lines: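 HEK293 cells loaded with Calcium-4 dye in Ca2+-free HBS (pH 7.4), stores depleted with 2 μM thapsigargin for 10 min (100 μM EGTA); after 3 mM CaCl2 re-addition and 15 min steady-state, compounds added and FLIPR signal averaged 9.5–10 min post-dose. IC50 from 8-point 1:3.16 dilutions from 10 μM, normalised to DMSO and non-depleted wells.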

The subject of experiment [2] is Interleukin-2 (IL-2) production/release in Jurkat T cells. Briefly: Jurkat IL-2 Production Assay (PHA-stimulated, IL-2 AlphaLisa). The experiment is classed as cell-based. As to conditions: Homo sapiens, PHA 15 μg/ml, 22 h, inhibition of IL-2 production. In a few lines: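 Jurkat E6-1 cells (5*10^5/well, DMEM/F12 with 10% FCS) pretreated 30 min with compound, then stimulated 22 h with 15 μg/ml PHA at 37 °C. IC50 from 8-point 1:3.16 dilution starting at 10 μM.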
(In general: Alpha assays give light when donor and acceptor beads are brought close together.)

A value given as a limit tells only on which side of the number the result lay.

T1 sequence (Q96D31 whole entry): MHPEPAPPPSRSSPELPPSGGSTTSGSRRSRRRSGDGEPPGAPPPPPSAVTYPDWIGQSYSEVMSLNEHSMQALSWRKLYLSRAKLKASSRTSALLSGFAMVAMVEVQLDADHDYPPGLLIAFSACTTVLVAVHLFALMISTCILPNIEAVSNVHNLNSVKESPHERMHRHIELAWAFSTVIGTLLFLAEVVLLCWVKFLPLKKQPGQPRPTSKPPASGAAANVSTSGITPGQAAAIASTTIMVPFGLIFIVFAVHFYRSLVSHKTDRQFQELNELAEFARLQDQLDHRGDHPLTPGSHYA

Broadly, the IC50 is the concentration that gives 50% inhibition. On to `COCc1ccc(N2CCc3[nH]c(-c4c(F)cccc4F)cc3C2)c(C)c1` [Example 105, 2-(2,6-Difluoro-phenyl)-5-[4-(methoxymethyl)-2-methyl-phenyl]-4,5,6,7-tetrahydro-1H-pyrrolo[3,2-c]pyridine], for which the inhibition at 10 µM in experiment [1] is more than 70%. The IC50 in experiment [2] was in the range of 0.5 to 1 µM.

As for `Cn1nc(C2CC2)cc1N1CCc2[nH]c(-c3c(F)cccc3F)cc2C1` [Example 106, 5-(5-Cyclopropyl-2-methyl-2H-pyrazol-3-yl)-2-(2,6-difluoro-phenyl)-4,5,6,7-tetrahydro-1H-pyrrolo[3,2-c]pyridine], in experiment [1], the inhibition at 10 µM is more than 70%. In addition, the IC50 in experiment [2] lay within 0.5 to 1 µM.

For the compound `Cn1nc(N2CCc3[nH]c(-c4c(F)cccc4F)cc3C2)cc1C1CC1` [Example 107, 5-(5-Cyclopropyl-1-methyl-1H-pyrazol-3-yl)-2-(2,6-difluoro-phenyl)-4,5,6,7-tetrahydro-1H-pyrrolo[3,2-c]pyridine], in experiment [1], the inhibition at 10 µM was more than 70%. For the same compound, the IC50 in experiment [2] lay within 1 to 5 µM.

As for `Cc1cc(S(C)(=O)=O)ncc1N1CCc2[nH]c(-c3ccncc3Cl)cc2C1` [Example 108, 2-(3-Chloro-pyridin-4-yl)-5-(4-methyl-6-methylsulfonyl-pyridin-3-yl)-4,5,6,7-tetrahydro-1H-pyrrolo[3,2-c]pyridine], the inhibition at 10 µM in experiment [1] is less than 50%. In addition, the IC50 in experiment [2] fell in the range of 0.5 to 1 µM.

With `Cc1cc(S(=O)(=O)N2CCC2)ccc1N1CCc2[nH]c(-c3c(F)cccc3F)cc2C1` [Example 109, 5-[4-(Azetidin-1-ylsulfonyl)-2-methyl-phenyl]-2-(2,6-difluoro-phenyl)-4,5,6,7-tetrahydro-1H-pyrrolo[3,2-c]pyridine], the inhibition at 10 µM in experiment [1] was less than 50%. In addition, the IC50 in experiment [2] was less than 0.5 µM.

Take `Cc1cc(S(C)(=O)=O)c(F)cc1N1CCc2[nH]c(C3CCCCC3)cc2C1` [Example 110, 2-Cyclohexyl-5-(5-fluoro-2-methyl-4-methylsulfonyl-phenyl)-4,5,6,7-tetrahydro-1H-pyrrolo[3,2-c]pyridine]: in experiment [1], the inhibition at 10 µM is less than 50%. Besides, the IC50 in experiment [2] is 1 to 5 µM.

With `Cc1cc(OC(F)(F)F)ncc1N1CCc2[nH]c(-c3c(F)cccc3F)cc2C1` [Example 111, 2-(2,6-Difluoro-phenyl)-5-[4-methyl-6-(trifluoromethyloxy)-pyridin-3-yl]-4,5,6,7-tetrahydro-1H-pyrrolo[3,2-c]pyridine], the inhibition at 10 µM in experiment [1] was less than 50%. Also, the 50% inhibitory concentration (IC50) in experiment [2] was less than 0.5 µM.

As to `COc1cc(C(F)(F)F)ncc1N1CCc2[nH]c(-c3c(F)cccc3F)cc2C1` [Example 112, 2-(2,6-Difluoro-phenyl)-5-[4-methoxy-6-(trifluoromethyl)-pyridin-3-yl]-4,5,6,7-tetrahydro-1H-pyrrolo[3,2-c]pyridine], the inhibition at 10 µM in experiment [1] was less than 50%. For the same compound, the 50% inhibitory concentration (IC50) in experiment [2] was less than 0.5 µM.

Consider `Fc1cccc(F)c1-c1cc2c([nH]1)CCN(c1cnc(C(F)(F)F)cc1C1CC1)C2` [Example 113, 5-[4-Cyclopropyl-6-(trifluoromethyl)-pyridin-3-yl]-2-(2,6-difluoro-phenyl)-4,5,6,7-tetrahydro-1H-pyrrolo[3,2-c]pyridine], for which, in experiment [1], the inhibition at 10 µM is less than 50%. In experiment [2], the IC50 was less than 0.5 µM.

For `CNS(=O)(=O)c1ccc(N2CCc3[nH]c(-c4c(F)cccc4F)cc3C2)c(C)c1` [Example 114, 4-[2-(2,6-Difluoro-phenyl)-4,5,6,7-tetrahydro-1H-pyrrolo[3,2-c]pyridin-5-yl]-N,3-dimethyl-benzenesulfonic acid amide], in experiment [1], the inhibition at 10 µM was less than 50%. In addition, in experiment [2], the IC50 is less than 0.5 µM.

Regarding `Cc1cc(S(C)(=O)=O)ncc1N1CCc2[nH]c(C3CCCOC3)cc2C1` (stereo not drawn) [Example 115, 5-(4-Methyl-6-methylsulfonyl-pyridin-3-yl)-2-tetrahydro-pyran-3-yl-4,5,6,7-tetrahydro-1H-pyrrolo[3,2-c]pyridine], in experiment [1], the inhibition at 10 µM was less than 50%. The IC50 in experiment [2] was in the range of 1 to 5 µM.

Consider `CCOc1cc(C(F)(F)F)ncc1N1CCc2[nH]c(-c3c(F)cccc3F)cc2C1` [Example 116, 2-(2,6-Difluoro-phenyl)-5-[4-ethoxy-6-(trifluoromethyl)-pyridin-3-yl]-4,5,6,7-tetrahydro-1H-pyrrolo[3,2-c]pyridine], for which, in experiment [1], the inhibition at 10 µM was more than 70%. The IC50 in experiment [2] is less than 0.5 µM.

`Cc1cc(S(=O)(=O)N2CCOCC2)ccc1N1CCc2[nH]c(-c3c(F)cccc3F)cc2C1` [Example 117, 4-[[4-[2-(2,6-Difluoro-phenyl)-4,5,6,7-tetrahydro-1H-pyrrolo[3,2-c]pyridin-5-yl]-3-methyl-phenyl]sulfonyl]-morpholine]: in experiment [1], the inhibition at 10 µM is more than 70%. The IC50 in experiment [2] lay within 0.5 to 1 µM.

With `Cc1cc(S(C)(=O)=O)ncc1N1CCc2[nH]c(C3CCCC3)cc2C1` [Example 118, 2-Cyclopentyl-5-(4-methyl-6-methylsulfonyl-pyridin-3-yl)-4,5,6,7-tetrahydro-1H-pyrrolo[3,2-c]pyridine], the inhibition at 10 µM in experiment [1] is more than 70%. In addition, the IC50 in experiment [2] was 1 to 5 µM.

Take `Cc1cc(S(=O)(=O)N2CCCCC2)ccc1N1CCc2[nH]c(-c3c(F)cccc3F)cc2C1` [Example 119, 2-(2,6-Difluoro-phenyl)-5-[2-methyl-4-(piperidin-1-ylsulfonyl)-phenyl]-4,5,6,7-tetrahydro-1H-pyrrolo[3,2-c]pyridine]: the inhibition at 10 µM in experiment [1] was less than 50%. For the same compound, the IC50 in experiment [2] was in the range of 1 to 5 µM.

For `Cc1cc(S(=O)(=O)N(C)C2CC2)ccc1N1CCc2[nH]c(-c3c(F)cccc3F)cc2C1` [Example 120, N-Cyclopropyl-4-[2-(2,6-difluoro-phenyl)-4,5,6,7-tetrahydro-1H-pyrrolo[3,2-c]pyridin-5-yl]-N,3-dimethyl-benzenesulfonic acid amide], the inhibition at 10 µM in experiment [1] was less than 50%. The IC50 in experiment [2] was 1 to 5 µM.

In the case of `Cc1cc(S(=O)(=O)N2CCCC2)ccc1N1CCc2[nH]c(-c3c(F)cccc3F)cc2C1` [Example 121, 2-(2,6-Difluoro-phenyl)-5-[2-methyl-4-(pyrrolidin-1-ylsulfonyl)-phenyl]-4,5,6,7-tetrahydro-1H-pyrrolo[3,2-c]pyridine], the inhibition at 10 µM in experiment [1] was more than 70%. Moreover, in experiment [2], the IC50 is 1 to 5 µM.

As to `Cc1cc(S(C)(=O)=O)ncc1N1CCc2[nH]c(C3CCC(F)(F)CC3)cc2C1` [Example 122, 2-(4,4-Difluoro-cyclohexyl)-5-(4-methyl-6-methylsulfonyl-pyridin-3-yl)-4,5,6,7-tetrahydro-1H-pyrrolo[3,2-c]pyridine], in experiment [1], the inhibition at 10 µM was 50 to 70%. In experiment [2], the IC50 was in the range of 1 to 5 µM.

Take `Cn1nc(C2(C(F)(F)F)CC2)cc1N1CCc2[nH]c(-c3c(F)cccc3F)cc2C1` [Example 123, 2-(2,6-Difluoro-phenyl)-5-[2-methyl-5-[1-(trifluoromethyl)-cyclopropyl]-2H-pyrazol-3-yl]-4,5,6,7-tetrahydro-1H-pyrrolo[3,2-c]pyridine]: the inhibition at 10 µM in experiment [1] is more than 70%. Besides, the IC50 in experiment [2] is 0.5 to 1 µM.

With `CCn1nc(C2(C(F)(F)F)CC2)cc1N1CCc2[nH]c(-c3c(F)cccc3F)cc2C1` [Example 124, 2-(2,6-Difluoro-phenyl)-5-[2-ethyl-5-[1-(trifluoromethyl)-cyclopropyl]-2H-pyrazol-3-yl]-4,5,6,7-tetrahydro-1H-pyrrolo[3,2-c]pyridine], in experiment [1], the inhibition at 10 µM is less than 50%. Moreover, the IC50 in experiment [2] was less than 0.5 µM.

As for `CCn1nc(C2CC2)cc1N1CCc2[nH]c(-c3c(F)cccc3F)cc2C1` [Example 126, 5-(5-Cyclopropyl-2-ethyl-2H-pyrazol-3-yl)-2-(2,6-difluoro-phenyl)-4,5,6,7-tetrahydro-1H-pyrrolo[3,2-c]pyridine], the inhibition at 10 µM in experiment [1] was more than 70%. Further, in experiment [2], the IC50 was 0.5 to 1 µM.

With `CNS(=O)(=O)c1ccc(N2CCc3[nH]c(-c4cnc(C)cc4C)cc3C2)c(C)c1` [Example 127, 4-[2-(4,6-Dimethyl-pyridin-3-yl)-4,5,6,7-tetrahydro-1H-pyrrolo[3,2-c]pyridin-5-yl]-N,3-dimethyl-benzenesulfonic acid amide], the inhibition at 10 µM in experiment [1] is more than 70%. The IC50 in experiment [2] was in the range of 1 to 5 µM.

On to `CNS(=O)(=O)c1ccc(N2CCc3[nH]c(C4CCC(F)(F)CC4)cc3C2)c(C)c1` [Example 128, 4-[2-(4,4-Difluoro-cyclohexyl)-4,5,6,7-tetrahydro-1H-pyrrolo[3,2-c]pyridin-5-yl]-N,3-dimethyl-benzenesulfonic acid amide], for which, in experiment [1], the inhibition at 10 µM was less than 50%. Besides, the IC50 in experiment [2] was in the range of 1 to 5 µM.

As to `CNS(=O)(=O)c1ccc(N2CCc3[nH]c(C4CCCCC4)cc3C2)c(C)c1` [Example 129], in experiment [1], the inhibition at 10 µM was less than 50%. In addition, the IC50 in experiment [2] fell in the range of 1 to 5 µM.

On to `CCn1nc(C(F)(F)F)cc1N1CCc2[nH]c(-c3c(F)cccc3F)cc2C1` [Example 130, 2-(2,6-Difluoro-phenyl)-5-[2-ethyl-5-(trifluoromethyl)-2H-pyrazol-3-yl]-4,5,6,7-tetrahydro-1H-pyrrolo[3,2-c]pyridine], for which, in experiment [1], the inhibition at 10 µM was more than 70%. The IC50 in experiment [2] is less than 0.5 µM.

Consider `CCNS(=O)(=O)c1ccc(N2CCc3[nH]c(-c4c(F)cccc4F)cc3C2)c(C)c1` [Example 131, 4-[2-(2,6-Difluoro-phenyl)-4,5,6,7-tetrahydro-1H-pyrrolo[3,2-c]pyridin-5-yl]-N-ethyl-3-methyl-benzenesulfonic acid amide], for which the inhibition at 10 µM in experiment [1] was less than 50%. In addition, the 50% inhibitory concentration (IC50) in experiment [2] lay within 1 to 5 µM.

`Cc1cc(N(C)S(C)(=O)=O)ccc1N1CCc2[nH]c(-c3c(F)cccc3F)cc2C1` [Example 132, N-[4-[2-(2,6-Difluoro-phenyl)-4,5,6,7-tetrahydro-1H-pyrrolo[3,2-c]pyridin-5-yl]-3-methyl-phenyl]-N-methyl-methanesulfonic acid amide]: the inhibition at 10 µM in experiment [1] was less than 50%. In addition, the concentration for half-maximal inhibition (IC50) in experiment [2] was 1 to 5 µM.
